Reference: patent publication EP1021444B1, “3-CARBOXAMIDE DERIVATIVES OF 5H-PYRROLO[2,1-c][1,4]-BENZODIAZEPINES” (Wyeth, priority 1996, dated 1998)
Where a name gives a salt, the structure may show the parent alone. Read-outs that look alike come from different tables or passages of the source.

What was measured:
[1] = system: Endogenous Arginine Vasopressin Antidiuretic (V2) Response; assay: Antagonism of endogenous arginine vasopressin antidiuretic (V2) response in conscious rats (urine volume); format: in vivo, Sprague-Dawley rats; conditions: 10 mg/kg rat p.o.; urine collected for four hours after dosing; no water or food during test
Text: Effects on the Antagonism of Endogenous Arginine Vasopressin Antidiuretic (V2) Response in Conscious Rats with Free Access to Water Drinking Before but not During the Experiment:
Male or female normotensive Sprague-Dawley rats (Charles River Laboratories, Inc., Kingston, NY) of 400-450 g body weight were supplied with Laboratory Rodent Feed #5001 (PMI Feeds, Inc., Richmond, IN) and water ad libitum. On the day of test, rats were placed individually into metabolic cages equipped with stainless steel screens (to separate the feces from the urine) and funnels for collection of urine. Vehicle or reference agent was given at various oral doses. During the test, rats were not provided with water or food. Urine was collected for four hours after dosing of the test compound. At the end of four hours, urine volume was measured. Urinary osmolality was determined using a Fiske One-Ten Osmometer (Fiske Associates, Norwood, MA, 02062). or an Advanced CRYOMATIC Osmometer, Model 3C2 (Advanced Instruments, Norwood, MA). Determinations of Na^+, K^+ and Cl^- ion were carried out using ion specific electrodes in a Beckman SYNCHRON EL-ISE Electrolyte System analyzer. In the following results, increased urine volume and decreased osmolality relative to AVP-control indicates activity.

[2] = molecular target: T1, Human V2 Vasopressin Receptor (Homo sapiens, UniProt P30518); assay: Binding to membranes of mouse fibroblast cell line (LV-2) transfected with the cDNA expressing the human V2 vasopressin receptor
T1 construct: expressed in transfected cells; host or cells: mouse fibroblast cell line LV-2 (membrane preparation)
T1 sequence (P30518 whole entry): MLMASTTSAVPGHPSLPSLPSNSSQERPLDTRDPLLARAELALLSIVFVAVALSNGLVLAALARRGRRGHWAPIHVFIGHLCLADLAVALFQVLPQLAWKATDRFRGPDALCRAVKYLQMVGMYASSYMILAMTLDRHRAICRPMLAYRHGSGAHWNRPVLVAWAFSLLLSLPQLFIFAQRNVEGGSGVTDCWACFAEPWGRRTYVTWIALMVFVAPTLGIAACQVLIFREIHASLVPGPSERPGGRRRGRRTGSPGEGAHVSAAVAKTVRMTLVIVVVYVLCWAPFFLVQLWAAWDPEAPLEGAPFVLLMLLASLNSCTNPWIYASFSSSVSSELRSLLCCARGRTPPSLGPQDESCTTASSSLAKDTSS
Protocol: Binding to Membranes of Mouse Fibroblast Cell Line (LV-2) Transfected with the cDNA Expressing the Human V2 Vasopressin Receptor
Flasks of 175 ml capacity, containing attached cells grown to confluence, are cleared of culture medium by aspiration. The flasks containing the attached cells are rinsed with 2x5 ml of phosphate buffered saline (PBS) and the liquid aspirated off each time. Finally, 5 ml of an enzyme free dissociation Hank's based solution (Specialty Media, Inc., Lafayette, NJ) is added and the flasks are left undisturbed for 2 min. The content of all flasks is poured into a centrifuge tube and the cells pelleted at 300 x g for 15 min. […] The homogenate is centrifuged at 1500 x g for 10 min to remove ghost membranes. The supernatant fluid is centrifuged at 100,000 x g for 60 min to pellet the receptor protein. Upon completion, the pellet is resuspended in a small volume of 50.0 mM Tris.HCl buffer, pH 7.4. The protein content is determined by the Lowry method and the receptor membranes are suspended in 50.0 mM Tris.HCl buffer containing 0.1 mM phenylmethylsulfonylfluoride (PMSF) and 0.2% bovine serum albumin (BSA) to give 2.5 mg receptor protein per ml of suspension.
For binding experiments, the following is added in ml volume to wells of a 96 well format of a microtiter plate: 100.0 ml of 100.0 mM Tris.HCl buffer containing 0.2% heat inactivated BSA, 10.0 mM MgCl2 and a mixture of protease inhibitors: leupeptin, 1.0 mg %; aprotinin, 1.0 mg %; 1,10-phenanthroline, 2.0 mg %; trypsin inhibitor, 10.0 mg % and 0.1 mM PMSF, 20.0 ml of [^3H] Arginine^8, vasopressin (S.A. 75.0 Ci/mmole) at 0.8 nM and the reaction initiated by the addition of 80.0 ml of tissue membranes (200.0 mg tissue protein). The plates are left undisturbed on the bench top for 120 min to reach equilibrium. Non specific binding is assessed in the presence of 1.0 mM of unlabeled ligand, added in 20 ml volume. For test compounds, these are solubilized in 50% dimethylsulfoxide (DMSO) and added in 20.0 ml volume to a final incubation volume of […]. Upon completion of binding, the content of each well is filtered off, using a Brandel® cell Harvester (Gaithersburg, MD). The radioactivity trapped on the filter disk by the ligand-receptor complex is assessed by liquid scintillation counting in a Packard LS Counter, with an efficiency of 65% for tritium. The data are analyzed for IC50 values by the LUNDON-2 program for competition (LUNDON SOFTWARE, OH).

[3] = read-out: Vasopressin Human V2 Receptor Binding

| Structure (SMILES) | Urine Volume (ml/4 hrs) [1] | IC50 [2] | IC50 [2, 3] |
| --- | --- | --- | --- |
| Cc1ccc(F)cc1C(=O)Nc1ccc(C(=O)N2Cc3ccc(C(=O)[N-][N+](C)(C)C)n3Cc3ccccc32)c(Cl)c1 [Example 5, 2-[[10-[2-Chloro-4-[(5-fluoro-2-methylbenzoyl)amino]benzoyl]-10,11-dihydro-5H-pyrrolo[2,1-c][1,4]benzodiazepin-3-yl]hydroxymethylene]-1,1,1-trimethylhydrazinium inner salt] | 9.1 ml/4 hrs | 60 nM |  |
| COc1cc(NC(=O)c2ccccc2-c2ccccc2)ccc1C(=O)N1Cc2ccc(C(=O)NN(C)C)n2Cc2ccccc21 [Example 17] | 9.4 ml/4 hrs |  |  |
| O=C(O)CNC(=O)c1ccc2n1Cc1ccccc1N(C(=O)c1ccc(NC(=O)c3ccccc3-c3ccccc3)cc1Cl)C2 [Example 18, 10-{4-[(Biphenyl-2-carbonyl)-amino]-2-chloro-benzoyl}-10,11-dihydro-5H-pyrrolo[2,1-c][1,4]benzodiazepine-3-carboxylic acid (glycyl)-amide] | 7.8 ml/4 hrs | 7.6 nM |  |
| O=C(Nc1ccc(C(=O)N2Cc3ccc(C(=O)O)n3Cc3ccccc32)c(Cl)c1)c1ccccc1-c1ccccc1 [Example 7, 10-{4-[(Bipheny-2-carbonyl)-amino]-2-chloro-benzoyl)-10,11-dihydro-5H-benzo[e]pyrrolo[1,2-a][1,4] diazepine-3-carboxylic acid] | 19.2 ml/4 hrs |  |  |
| O=C(Nc1ccc(C(=O)N2Cc3ccc(C(=O)N4CCC(N5CCOCC5)CC4)n3Cc3ccccc32)c(Cl)c1)c1ccccc1-c1ccccc1 [Example 15, Biphenyl-2-carboxylic acid{3-chloro-4-[3-(4-morpholino-piperidine-1-carbonyl)-5H,11H-pyrrolo[2,1-c][1,4]benzodiazepine-10-carbonyl]-phenyl}-amide.] |  | 10.7 nM |  |
| Cc1ccc(F)cc1C(=O)Nc1ccc(C(=O)N2Cc3ccc(C(=O)[O-])n3Cc3ccccc32)c(Cl)c1.[K+] [Example 2, 10-[2-Chloro-4-(5-fluoro-2-methyl-benzoylamino)-benzoyl]-10,11-dihydro-5H-pyrrolo[2,1-c][1,4]benzodiazepine-3-carboxylic acid, potassium salt (1:1)] | 11.5 ml/4 hrs |  |  |
| CN1CCN(NC(=O)c2ccc3n2Cc2ccccc2N(C(=O)c2ccc(NC(=O)c4ccccc4-c4ccccc4)cc2Cl)C3)CC1 [Example 13, Biphenyl-2-carboxylic acid{3-chloro-4-[3-(4-methyl-piperazine-1 aminocarbonyl)-5H,11H-pyrrolo[2,1-c][1,4]benzodiazepine-10-carbonyl]-phenyl}-amide.] | 16.8 ml/4 hrs |  |  |
| Cc1ccc(F)cc1C(=O)Nc1ccc(C(=O)N2Cc3ccc(C(=O)O)n3Cc3ccccc32)c(Cl)c1 [Example 1, 10-[2-Chloro-4-(5-fluoro-2-methyl-benzoylamino)-benzoyl]-10,11-dihydro-5H-pyrrolo[2,1-c][1,4]benzodiazepine-3-carboxylic acid] | 13.2 ml/4 hrs |  | 14 nM |
| CN(C)C1CCN(C(=O)c2ccc3n2Cc2ccccc2N(C(=O)c2ccc(NC(=O)c4ccccc4-c4ccccc4)cc2Cl)C3)CC1 [Example 12, Biphenyl-2-carboxylic acid{3-chloro-4-[3-(4-dimethylamino-piperidine-1-carbonyl)-5H,11H-pyrrolo[2,1-c][1,4]benzodiazepine-10-carbonyl]-phenyl}-amide.] | 21.4 ml/4 hrs |  |  |
| COc1cc(NC(=O)c2ccccc2-c2ccccc2)ccc1C(=O)N1Cc2ccc(C(=O)N3CCN(C)CC3)n2Cc2ccccc21 [Example 16] | 24.3 ml/4 hrs |  |  |
| CN(C)NC(=O)c1ccc2n1Cc1ccccc1N(C(=O)c1ccc(NC(=O)c3ccccc3-c3ccccc3)cc1Cl)C2 [Example 8] | 40.9 ml/4 hrs | 8.6 nM |  |
| O=C(Nc1ccc(C(=O)N2Cc3ccc(C(=O)C(Cl)(Cl)Cl)n3Cc3ccccc32)c(Cl)c1)c1ccccc1-c1ccccc1 [Example 6] |  | 5.6 nM |  |
| O=C(Nc1ccc(C(=O)N2Cc3ccc(C(=O)N4CCC(N5CCCCC5)CC4)n3Cc3ccccc32)c(Cl)c1)c1ccccc1-c1ccccc1 [Example 11, Biphenyl-2-carboxylic acid{3-chloro-4-[3-(4-piperidinyl-piperidine-1-carbonyl)-5H,11H-pyrrolo[2,1-c][1,4]benzodiazepine-10-carbonyl]-phenyl}-amide.] |  | 9.3 nM |  |
| Cc1ccc(F)cc1C(=O)Nc1ccc(C(=O)N2Cc3ccc(C(=O)N[N+](C)(C)C)n3Cc3ccccc32)c(Cl)c1 [Example 4, 2-[[10-[2-Chloro-4-[(5-fluoro-2-methylbenzoyl)amino]benzoyl]-10,11-dihdro-5H-pyrrolo{2,1-c][1,4]benzodiazepin-3-yl]carbonyl]-1,1,1-trimethylhydrazinium iodide] | 9.2 ml/4 hrs | 60 nM |  |
| Cc1ccc(F)cc1C(=O)Nc1ccc(C(=O)N2Cc3ccc(C(=O)NN(C)C)n3Cc3ccccc32)c(Cl)c1 [Example 3, N-{3-Chloro-4-[3-(N', N'-dimethyl-hydrazinocarbonyl)-5H,11H-pyrrolo[2,1-c][1,4]benzodiazepine-10-carbonyl]-phenyl}-5-fluoro-2-methyl-benzamide] | 22 ml/4 hrs |  | 15 nM |
| CN(C)CCNC(=O)c1ccc2n1Cc1ccccc1N(C(=O)c1ccc(NC(=O)c3ccccc3-c3ccccc3)cc1Cl)C2 [Example 14, 10-{4-[(Biphenyl-2-carbonyl)-amino]-2-chloro-benzoyl}-10,11-dihydro-5H-pyrrolo[2,1-c][1,4]benzodiazepine-3-carboxylic acid (2-dimethylamino-ethyl) -amide] | 11.3 ml/4 hrs |  |  |
| CN(C)CCN(C)C(=O)c1ccc2n1Cc1ccccc1N(C(=O)c1ccc(NC(=O)c3ccccc3-c3ccccc3)cc1Cl)C2 [Example 10, 10-{4-[(Biphenyl-2-carbonyl)-amino]-2-chloro-benzoyl}-10,11-dihydro-5H-pyrrolo[2,1-c][1,4]benzodiazepine-3-carboxylic acid (2-dimethylamino-ethyl)-methyl-amide] | 22.2 ml/4 hrs |  | 5.5 nM |
